# In US10087225B2, “Formulation of MK2 inhibitor peptides” (MOERAE MATRIX, INC., priority 2015, dated 2018):
# Peptide text beside a SMILES is read from it.
# Legend:
# HCAVSMCs [1] = conditions: human, 72 h
# Description: For MK2i-NP and HSP20-NP studies, An amine-reactive Alexa-488 succinimidyl ester (Life Technologies) was dissolved in DMSO and mixed at a 1 to 3 molar ratio with the MK2i or p-HSP20 peptide in 100 mM sodium bicarbonate buffer (pH=8.3) and allowed to react for 3 hours. Unreacted fluorophore and organic solvent were removed using a PD-10 miditrap G-10 desalting column, and the fluorescently labeled MK2i and p-HSP20 peptides were lyophilized. […] Similarly, PPAA was mixed with fluorescently labeled p-HSP20 at a CR of [NH3^+]/[COO^−]=1:3 and syringe filtered through a 0.45 μm PTFE filter to form fluorescent HSP20-NPs. HCAVSMCs were grown to 80-90% confluence, harvested, and seeded at 20,000 cells/well in a 24 well plate and allowed to adhere overnight. […] Following treatment, cells were washed 2× in PBS, and either immediately harvested or incubated in complete growth media for an additional 72 hours. Cells were harvested with 0.05% trypsin-EDTA, centrifuged, and suspended in 0.1% Trypan blue in PBS (−/−) for analysis on a FACSCalibur flow cytometer (Becton Dickinson) with BD CellQuest™ Pro software (V 5.2). Data was exported and analyzed with FlowJo software (V 7.6.4). All samples were run in triplicate.
# [2] = system: human saphenous vein (HSV); assay: Inhibition of phenylephrine-induced HSV contraction; conditions: 2 h treatment
# Description: Prior to experiments, HSV viability was confirmed. HSV rings were weighed and their lengths recorded. […] The rings were stretched and the length progressively adjusted until maximal tension was obtained 49. Normalized reactivity was obtained by determining the passive length-tension relationship for each vessel segment. Rings were maintained at a resting tension of 1 g, which produces maximal responses to contractile agonists, as previously determined, and equilibrated for 2 h in buffer. Force measurements were obtained using a Radnoti Glass Technology (Monrovia, Calif.) force transducer (159901A) interfaced with a Powerlab data acquisition system and LabChart software (AD Instruments, Colorado Springs, Colo.).
# HSV rings were initially isometrically contracted with 110 mM KCl (with equimolar replacement of NaCl in bicarbonate buffer), and the generated force was measured. 110 mM KCl causes membrane depolarization, leading to contraction of vessels containing functionally viable smooth muscle. […]
# Viable HSV rings were washed, allowed to equilibrate in bicarbonate solution for 30 min, and then contracted with phenylephrine (PE, 1 μM). […] Treated HSV rings were then contracted with the same doses of PE, and the forces generated were again recorded. […]
# in vitro = conditions: human, HCAVSMCs
# Description: 200 μL of cell suspension (at 10,000 cells/well) were seeded onto 96-well plates to yield an approximate 70% confluence per well. Cells were allowed to adhere to the plate overnight. […] Treatments were subsequently removed and the cells were cultured in fresh complete growth medium for 24 hours. Cells were then washed 2× with PBS +/+ and cell viability was then determined by a CytoTox-ONE Homogenous Membrane Integrity assay (Promega) according to the manufacturer's protocol. Briefly, 100 μL of Ambion KDalert Lysis Buffer was added to each well, and then 100 μL of freshly prepared CytoTox-ONE reagent was added to each well. After 10 minutes of incubation, 50 μL of stop solution was added, and the fluorescence of each well (kλex=560 nm, λem, =590 nm) was determined with a TECAN Infinite M1000 Pro plate reader.
# HCAVSMCs [3] = assay: Cytosolic vs. organelle bound peptide by digitonin semi-permeabilization; type: cell-based, human; conditions: Bafilomycin treatment
# Description: In order to quantify the cytosolic bioavailability of the MK2i and HSP20 peptides a method to separate cytosolic and organelle bound (i.e. endosomal, lysosomal, golgi, etc.) peptide was adapted from the methods developed by Liu et a140. The procedure was optimized for this experiment based upon LDH release from HCAVSMCs treated with varying concentrations of digitonin (Calbiochem) in buffer (150 mM NaCl, 0.2 mM EDTA, 20 mM HEPES-NaOH (pH 7.4), 2 mM DTT and 2 mM MgCL2) on ice for 10 mins on a rotary shaker operating at 100 RPM (supplementary FIG. 3). A concentration of 25 μg/mL was then chosen as the optimal digitonin concentration for selective semi-permeabilization of the HCAVSMC membrane and subsequently used for the analysis of intracellular peptide distribution.
# To quantify intracellular distribution of the MK2i and p-HSP20 peptides, HCAVSMCs were seeded into a 96 well plate at a density of 20,000 cells/cm2 and allowed to adhere overnight in complete growth medium. A portion of the cells were pretreated with 500 nM Bafilomycin A1 (Sigma) for 30 minutes, and the Bafilomycin was included in subsequent peptide/NP treatment and in the post-treatment incubation phase to inhibit endosomal acidification. […] Treatments were removed and cells were incubated in fresh medium with or without 500 nM Bafilomycin A1 for 6 hours. […]
smiles,measurement,setting,value
CC(C)C[C@H](NC(=O)CNC(=O)[C@@H]1CCCN1C(=O)[C@H](CC(C)C)NC(=O)[C@@H]1CCCN1C(=O)[C@H](C)NC(=O)[C@H](COP(=O)(O)O)NC(=O)[C@H](C)NC(=O)[C@H](CCCNC(=N)N)NC(=O)[C@H](CCCNC(=N)N)NC(=O)[C@H](CC(C)C)NC(=O)[C@H](Cc1c[nH]c2ccccc12)NC(=O)[C@H](C)NC(=O)[C@H](CCCNC(=N)N)NC(=O)[C@H](C)NC(=O)[C@H](CCC(N)=O)NC(=O)[C@H](CCCNC(=N)N)NC(=O)[C@H](C)NC(=O)[C@H](C)NC(=O)[C@H](C)NC(=O)[C@H](CCCNC(=N)N)NC(=O)[C@H](C)NC(=O)[C@@H](N)Cc1ccc(O)cc1)C(=O)N[C@@H](CCCCN)C(=O)O [p-HSP20] (HELM PEPTIDE1{Y.A.R.A.A.A.R.Q.A.R.A.W.L.R.R.A.[O=C([C@H](COP(=O)(O)O)N[*:1])[*:2]].A.P.L.P.G.L.K}$$$$V2.0; N-terminus and C-terminus assumed),intracellular peptide retention (% of initial uptake remaining),HCAVSMCs [1],35%
same,PE-induced HSV contraction,[2],significantly inhibited
same,"viability at 2 h, 500 µM",in vitro,77%
same,cytosolic fraction of internalized free peptide,HCAVSMCs [3],7.36%±8.28%
